From ChEMBL document CHEMBL5046300, “Potent Bactericidal Antimycobacterials Targeting the Chaperone ClpC1 Based on the Depsipeptide Natural Products Ecumicin and Ohmyungsamycin A” (2022) come the findings set out here.

Converted amounts (≈) assume the structure as drawn. The source made the active and inactive calls. The rule behind the calls is not given here. *1 amine or outer side, *2 acyl side, *3 side chain or, on linkers, in order; H or OH if unused. Where a SMILES comes first, the peptide text is derived from it. Bridges are numbered along the chain shown (N, C = ends). [ ]: non-standard residue; d: D form. The star is where a group is joined. Phe(3R-OH) = O=C([C@@H](N[*:1])[C@H](O[*:3])c1ccccc1)[*:2]; NMeTrp(4-OMe) = CN[C@@H](Cc1c[nH]c2cccc(OC)c12)C(=O)O; NMeW = CN[C@@H](Cc1c[nH]c2ccccc12)C(=O)O; NMe2Val = CC(C)[C@@H](C(=O)*)N(C)C; NMeChg = CN[C@H](C(=O)O)C1CCCCC1; NMeT = CN[C@H](C(=O)O)[C@@H](C)O; NMeD = CN[C@@H](CC(=O)O)C(=O)O; NMeL = CN[C@@H](CC(C)C)C(=O)O; NMeV = CN[C@H](C(=O)O)C(C)C; NMeS = CN[C@@H](CO)C(=O)O; Pip = O=C(O)[C@@H]1CCCCN1

For test [1], the system named is Mycobacterium tuberculosis. As to the kind of experiment: Antimycobacterial activity against Mycobacterium tuberculosis mc2 6230 measured after 7 days. Type of test: functional. The note with it: mc2 6230, 168 h, time 7 day.
Test [2] deals with Providencia alcalifaciens. Nature of the test: Antibacterial activity against Providencia alcalifaciens ATCC 9886 assessed as bacterial growth inhibition incubated for 18 to 20 hrs by broth microdilution method. Type of test: functional. The note with it: time 18-20 hrs. For orientation: Broth dilution looks for growth in wells or tubes with falling amounts of substance.
For test [3], the system named is Klebsiella aerogenes. As to the kind of experiment: Antibacterial activity against Klebsiella aerogenes ATCC 35029 assessed as bacterial growth inhibition incubated for 18 to 20 hrs by broth microdilution method. The format is functional. The note with it: time 18-20 hrs.
Test [4] has as its system Pseudomonas aeruginosa. Nature of the test: Antibacterial activity against Pseudomonas aeruginosa ATCC 27853 assessed as bacterial growth inhibition incubated for 18 to 20 hrs by broth microdilution method. The format is functional. The note with it: time 18-20 hrs.
Test [5] has as its system Listeria ivanovii. As to the kind of experiment: Antibacterial activity against Listeria ivanovii BAA-139 assessed as bacterial growth inhibition incubated for 18 to 20 hrs by broth microdilution method. Type of test: functional. The note with it: time 18-20 hrs.
In test [6] the test system is Klebsiella pneumoniae. As to the kind of experiment: Antibacterial activity against Klebsiella pneumoniae ATCC 700603 assessed as bacterial growth inhibition incubated for 18 to 20 hrs by broth microdilution method. As to conditions: time 18-20 hrs. Type of test: functional.
Test [7] concerns Streptococcus pneumoniae. As to the kind of experiment: Antibacterial activity against Streptococcus pneumoniae ATCC 49619 assessed as bacterial growth inhibition incubated for 18 to 20 hrs by broth microdilution method. Type of test: functional. The note with it: time 18-20 hrs.
The subject of test [8] is Shigella sonnei. Nature of the test: Antibacterial activity against Shigella sonnei ATCC 25931 assessed as bacterial growth inhibition incubated for 18 to 20 hrs by broth microdilution method. The format is functional. As to conditions: time 18-20 hrs.
The test system of test [9] is Vibrio cholerae. As to the kind of experiment: Antibacterial activity against Vibrio cholerae A1552 El Tor assessed as bacterial growth inhibition incubated for 18 to 20 hrs by broth microdilution method. As to conditions: time 18-20 hrs. Type of test: functional.
Test [10] has as its system Staphylococcus aureus. Nature of the test: Antibacterial activity against methicillin-sensitive Staphylococcus aureus ATCC 29213 assessed as bacterial growth inhibition incubated for 18 to 20 hrs by broth microdilution method. As to conditions: time 18-20 hrs. Type of test: functional.
In test [11] the test system is Staphylococcus epidermidis. Nature of the test: Antibacterial activity against Staphylococcus epidermidis ATCC 14990 assessed as bacterial growth inhibition incubated for 18 to 20 hrs by broth microdilution method. Type of test: functional. The note with it: time 18-20 hrs.
Test [12] has as its system Enterococcus faecium. As to the kind of experiment: Antibacterial activity against Enterococcus faecium ATCC 6569 assessed as bacterial growth inhibition incubated for 18 to 20 hrs by broth microdilution method. Type of test: functional. The note with it: time 18-20 hrs.
In test [13] the test system is Brucella anthropi. Nature of the test: Antibacterial activity against Ochrobactrum anthropi ATCC 49687 assessed as bacterial growth inhibition incubated for 18 to 20 hrs by broth microdilution method. The format is functional. As to conditions: time 18-20 hrs.
Test [14] deals with Bacillus subtilis. Nature of the test: Antibacterial activity against Bacillus subtilis ATCC 6051 assessed as bacterial growth inhibition incubated for 18 to 20 hrs by broth microdilution method. Type of test: functional. As to conditions: time 18-20 hrs.
Test [15] relates to Yersinia pseudotuberculosis. Nature of the test: Antibacterial activity against Yersinia pseudotuberculosis ATCC 6904 assessed as bacterial growth inhibition incubated for 18 to 20 hrs by broth microdilution method. Type of test: functional. As to conditions: time 18-20 hrs.
For test [16], the system named is Escherichia coli. Nature of the test: Antibacterial activity against Escherichia coli K-12 MG1655 assessed as bacterial growth inhibition incubated for 18 to 20 hrs by broth microdilution method. Type of test: functional. The note with it: time 18-20 hrs.
For test [17], the system named is Enterococcus faecalis. Nature of the test: Antibacterial activity against Enterococcus faecalis ATCC 29212 assessed as bacterial growth inhibition incubated for 18 to 20 hrs by broth microdilution method. As to conditions: time 18-20 hrs. The format is functional.
Test [18] has as its system Staphylococcus aureus. Nature of the test: Antibacterial activity against methicillin-resistant Staphylococcus aureus BAA-44 assessed as bacterial growth inhibition incubated for 18 to 20 hrs by broth microdilution method. Type of test: functional. As to conditions: time 18-20 hrs.
In test [19] the test system is Salmonella enterica. Nature of the test: Antibacterial activity against Salmonella enterica ATCC 13311 assessed as bacterial growth inhibition incubated for 18 to 20 hrs by broth microdilution method. Type of test: functional. The note with it: time 18-20 hrs.
Test [20] concerns Acinetobacter baumannii. Nature of the test: Antibacterial activity against Acinetobacter baumannii ATCC 19606 assessed as bacterial growth inhibition incubated for 18 to 20 hrs by broth microdilution method. The format is functional. The note with it: time 18-20 hrs.
Test [21] has as its system Mycobacterium tuberculosis. As to the kind of experiment: Antimycobacterial activity against Mycobacterium tuberculosis mc2 6230 assessed as log reduction in bacteria measured up to 21 days by Time kill assay. The note with it: time day <=21. The format is functional, organism-based.

In test [1], `CN[C@H](C(=O)N[C@H](C(=O)N[C@@H]1C(=O)N(C)[C@@H]([C@@H](C)O)C(=O)N[C@@H](C(C)C)C(=O)N(C)[C@@H](CC(C)C)C(=O)N[C@@H](C(C)C)C(=O)N(C)[C@@H](CO)C(=O)N(C)[C@@H](Cc2c[nH]c3ccccc23)C(=O)N[C@@H](C(C)C)C(=O)N[C@@H](Cc2ccccc2)C(=O)N[C@@H](C(C)C)C(=O)O[C@@H]1C)C(C)C)C(C)C` (H-[NMeV]VT[NMeT]V[NMeL]V[NMeS][NMeW]VFV; ester 3-C) came in with an MIC of 2 µM (≈ 2.8 µg/mL).
In the case of `CN[C@H](C(=O)N[C@H](C(=O)N[C@@H]1C(=O)N(C)[C@@H]([C@@H](C)O)C(=O)N[C@@H](C(C)C)C(=O)N(C)[C@@H](CC(C)C)C(=O)N[C@@H](C(C)C)C(=O)N(C)[C@@H](C2CCCCC2)C(=O)N(C)[C@@H](Cc2c[nH]c3ccccc23)C(=O)N[C@@H](C(C)C)C(=O)N[C@@H](Cc2ccccc2)C(=O)N[C@@H](C(C)C)C(=O)O[C@@H]1C)C(C)C)C(C)C` (H-[NMeV]VT[NMeT]V[NMeL]V[NMeChg][NMeW]VFV; ester 3-C), in [1], the MIC was 0.5 µM (≈ 0.726 µg/mL).
As for `COc1cccc2[nH]cc(C[C@H]3C(=O)N[C@@H](C(C)C)C(=O)N[C@@H]([C@H](O)c4ccccc4)C(=O)N[C@@H](C(C)C)C(=O)O[C@H](C)[C@H](NC(=O)[C@@H](NC(=O)[C@H](C(C)C)N(C)C)C(C)C)C(=O)N(C)[C@@H]([C@@H](C)O)C(=O)N[C@@H](C(C)C)C(=O)N(C)[C@@H](CC(C)C)C(=O)N[C@@H](C(C)C)C(=O)N(C)[C@@H](C(C)C)C(=O)N3C)c12` (NMe2Val-VT[NMeT]V[NMeL]V[NMeV][NMeTrp(4-OMe)]V[Phe(3R-OH)]V; ester 2-C), the minimal inhibitory concentration (MIC) in test [1] came out at 0.5 µM (≈ 0.736 µg/mL).
As to `CN[C@H](C(=O)N[C@H](C(=O)N[C@@H]1C(=O)N(C)[C@@H]([C@@H](C)O)C(=O)N[C@@H](C(C)C)C(=O)N(C)[C@@H](CC(C)C)C(=O)N[C@@H](C(C)C)C(=O)N2CCCC[C@H]2C(=O)N(C)[C@@H](Cc2c[nH]c3ccccc23)C(=O)N[C@@H](C(C)C)C(=O)N[C@@H](Cc2ccccc2)C(=O)N[C@@H](C(C)C)C(=O)O[C@@H]1C)C(C)C)C(C)C` (H-[NMeV]VT[NMeT]V[NMeL]V[Pip][NMeW]VFV; ester 3-C), the MIC in test [1] amounted to 4 µM (≈ 5.64 µg/mL).
As for `CN[C@@H]1[C@H](O[C@H]2[C@H](O[C@H]3[C@H](O)[C@@H](O)[C@H](N=C(N)N)[C@@H](O)[C@@H]3N=C(N)N)O[C@@H](C)[C@]2(O)C=O)O[C@@H](CO)[C@H](O)[C@H]1O` [STREPTOMYCIN], the MIC in [2] was 9.3 µM (≈ 5.41 µg/mL); in [3], 0.25 µM (≈ 0.145 µg/mL); in test [4], 16 µM (≈ 9.31 µg/mL); in test [5], 4 µM (≈ 2.33 µg/mL); in [6], 0.17 µM (≈ 0.0989 µg/mL); in test [7], 48 µM (≈ 27.9 µg/mL). Also, the MIC in [8] was determined as 0.25 µM (≈ 0.145 µg/mL); in test [9], 13 µM (≈ 7.56 µg/mL); in test [10] it was 2.7 µM (≈ 1.57 µg/mL); in test [11], 2.7 µM (≈ 1.57 µg/mL); in test [12], 16 µM (≈ 9.31 µg/mL); in test [13], 128 µM (≈ 74.4 µg/mL). For the same compound, the MIC in test [14] was 128 µM (≈ 74.4 µg/mL); in test [15], 6.7 µM (≈ 3.9 µg/mL); in test [16], 0.25 µM (≈ 0.145 µg/mL); in test [17] it was 128 µM (≈ 74.4 µg/mL); in test [18], 9.3 µM (≈ 5.41 µg/mL); in [19], 0.33 µM (≈ 0.192 µg/mL). The MIC in test [20] amounted to 128 µM (≈ 74.4 µg/mL).
For the compound `CN[C@H](C(=O)N[C@H](C(=O)N[C@@H]1C(=O)N(C)[C@@H]([C@@H](C)O)C(=O)N[C@@H](C(C)C)C(=O)N(C)[C@@H](CC(C)C)C(=O)N[C@@H](C(C)C)C(=O)N(C)[C@@H](CC(C)C)C(=O)N(C)[C@@H](Cc2c[nH]c3ccccc23)C(=O)N[C@@H](C(C)C)C(=O)N[C@@H](Cc2ccccc2)C(=O)N[C@@H](C(C)C)C(=O)O[C@@H]1C)C(C)C)C(C)C` (H-[NMeV]VT[NMeT]V[NMeL]V[NMeL][NMeW]VFV; ester 3-C), in [1], the minimal inhibitory concentration (MIC) was 0.25 µM (≈ 0.357 µg/mL). Further, the result in [21] was Active.
Take `CN[C@H](C(=O)N[C@H](C(=O)N[C@@H]1C(=O)N(C)[C@@H]([C@@H](C)O)C(=O)N[C@@H](C(C)C)C(=O)N(C)[C@@H](CC(C)C)C(=O)N[C@@H](C(C)C)C(=O)N(C)[C@@H](CC(=O)O)C(=O)N(C)[C@@H](Cc2c[nH]c3ccccc23)C(=O)N[C@@H](C(C)C)C(=O)N[C@@H](Cc2ccccc2)C(=O)N[C@@H](C(C)C)C(=O)O[C@@H]1C)C(C)C)C(C)C` (H-[NMeV]VT[NMeT]V[NMeL]V[NMeD][NMeW]VFV; ester 3-C): the MIC in test [1] was 32 µM (≈ 45.7 µg/mL).

As usually defined, the MIC is the lowest concentration that inhibits growth of the organism.
